Measured values published in US20260272871A1, “USE OF RETINOIC ACID RECEPTOR ACTIVATOR AND COMPOSITION THEREOF IN REGENERATION AND REPAIR OF MAMMALS” (INSTITUTE OF ZOOLOGY, CHINESE ACADEMY OF SCIENCES, priority 2022, published 2026).
“Also recorded” adds a separate entry of the source.

Columns and labels:
[1] = tested on: 2 mm diameter mouse ear hole; experiment: 2 mm ear hole trauma mouse model (ear hole closure); assay type: in vivo, C57BL/6 mice; details: for healing of 2 mm ear holes by inhibitors of ferroptosis and autophagy: 10-20 mg/kg, measured 21 days after damage, vs DMSO and CHX, FIG. 3; for ear hole regeneration (healing) on interfering with potential RA targets: 10 or 20 mg/kg per reagent, 21 days after the trauma, FIG. 5B
[2] = tested on: 4 mm diameter mouse ear hole; design: species or system mice; details: in vivo
scalded skin of mice = experiment: Scald scar formation in mice; assay type: in vivo; details: after 40 days of administration, after hair shaving, vs Vehicle; FIG. 7
Protocol: Experimental method: 7-week-old mice were used and (1) mice were anesthetized by intraperitoneal injection of 0.5% pentobarbital sodium (100 μl/10 g b.w.); (2) the back was shaved, and the skin was disinfected with 75% alcohol. (3) the mice were scalded with boiling water for 10-15 seconds. The scald area was a circle with a diameter of 1.5 cm. […] (5) wound repair status was detected.

## O=C1OC(COc2ccccc2[N+](=O)[O-])CC1Cc1ccccc1 (stereo not shown) [3BDO]
[1]
  healing of 2 mm ear holes by inhibitors of ferroptosis and autophagy: Neither inhibitors of ferroptosis nor autophagy could promote the healing of the ear hole like CHX

## Cc1ccc(C2=CCC(C)(C)c3ccc(C#Cc4ccc(C(=O)O)cc4)cc32)cc1 [AGN193109]
[1]; CHX 20 mg/kg + AGN 0.75 mg/kg i.p., 21 days after damage, FIG. 4
  effect of RAR inhibitor on CHX-induced ear hole healing: completely inhibit the healing of the ear holes induced by CHX
[1]; CHX 20 mg/kg + RA 5 mg/kg + AGN 0.75 mg/kg i.p., 21 days after damage, FIG. 4
  effect of RAR inhibitor on the coordinated effect of CHX+RA: could still be inhibited

## COc1ccc(C[C@H]2NC[C@H](O)[C@H]2OC(C)=O)cc1 [Ani, Anisomycin]
[1]; mouse, in vivo
  healing of the 2 mm ear hole: could significantly promote the healing of the ear hole

## Cc1cc(Nc2cc(Cl)nc(Oc3ccc([N+](=O)[O-])cc3)n2)n[nH]1 [Autophinib]
[1]
  healing of 2 mm ear holes by inhibitors of ferroptosis and autophagy: Neither inhibitors of ferroptosis nor autophagy could promote the healing of the ear hole like CHX

## C[C@@H]1C[C@@H]([C@H](O)CC2CC(=O)NC(=O)C2)C(=O)[C@@H](C)C1 [CHX, 4-((R)-2-((1S,3S,5S)-3,5-dimethyl-2-oxocyclohexyl)-2-hydroxyethyl)piperidine-2,6-dione]
[2]
  closure of 4 mm diameter ear holes: promoted the shrinkage of ear hole wounds, but could not completely close them; also recorded: complete closure of the ear holes could be achieved
  wound area of the 4 mm mouse ear hole: significantly reduced
[1]; mouse, in vivo
  HE staining of auricle tissue 180 days after ear hole closure: regeneration of tissues and tissue derivatives such as hair follicles, glands, cartilage, muscles and blood vessels
  HE staining of mouse auricle tissue: the trauma had completely healed
  HE staining of mouse auricle tissue, 15th day: healed the tissue after damage and formed granulation tissue
  KI67 immunohistochemical staining of mouse auricle tissue: expressed a large amount of KI67
  concentration (dose) above which the ear hole wound was completely closed: greater than 8 mg/kg
  dose dependence of promotion of 2 mm ear hole healing: dose-dependent
  effect of different administration manners on ear hole healing: different manners of administration had the effect of promoting regeneration
  healing condition of 2 mm ear hole (photograph): had completely closed
  healing of the 2 mm ear hole: could significantly promote the healing of the ear hole; also recorded: the healing effect of CHX was better
[1]; mouse, in vivo, ip
  closure of 2 mm diameter ear holes at different concentrations of CHX: promoted the closure

## CC1=C(/C=C/C(C)=C/C=C/C(C)=C/C(=O)O)C(C)(C)CCC1 [RA, all-trans retinoic acid]
Scalded skin of mice
  scar area after scald: significantly reduce the scar area
[1]; RA 5 mg/kg, 20 mg/kg vs DMSO, 21 days after ear hole damage, FIG. 5A
  closure of the ear hole with RA alone: promote the closure of the ear hole in a dose-dependent manner

## CCC(CC)C(c1ccc(Nc2nc3ccccc3s2)cc1)n1cncn1 (stereo not shown) [Talarozole]
[1]
  ear hole regeneration (healing) on interfering with potential RA targets: could also promote ear hole regeneration

## O=S(=O)(NCCN1CCNCC1)c1ccc(NC2CCCCC2)c(NCc2ccccc2)c1 [UAMC-3203]
[1]
  healing of 2 mm ear holes by inhibitors of ferroptosis and autophagy: Neither inhibitors of ferroptosis nor autophagy could promote the healing of the ear hole like CHX

## CC1=C(/C=C/C(C)=C/C=C/C(C)=C/CO)C(C)(C)CCC1 [vitamin A]
[1]
  ear hole regeneration (healing) on interfering with potential RA targets: could also promote ear hole regeneration
